Assay [1] deals with bitter taste. To be noted: in vivo; cited from earlier work.
Assay [2] relates to bitter taste of H-Gly-Leu-OH. As to the kind of experiment: Bitter intensity ranking with Glypyridaine: H-Gly-Leu-OH. It is filed as in vivo. To be noted: scale 0-5. From the text:
Instead of working with low concentrated solutions at the bitter threshold, another series of experiments use carried out using more concentrated solutions of various bitter compounds to evaluate the bitter-blocking properties of Pyridinium-Betaines based on non-chiral amino acids. […] The bitter-reducing effect was most pronounced with L-Phenylalanine, the dipeptide H-Gly-Leu-OH, and caffeine. For example the 10:1 mixture of L-Phenylalanine and […] was weaker in bitterness (score 3) as compared to pure L-Phenylalanine (score 5).

The subject of assay [3] is bitter taste of naringine. Description: Bitter intensity ranking with Glypyridaine: naringine. The assay is classed as in vivo. To be noted: ratio to Glypyridaine 1:1, scale 0-5. From the text: (§1) Instead of working with low concentrated solutions at the bitter threshold, another series of experiments use carried out using more concentrated solutions of various bitter compounds to evaluate the bitter-blocking properties of Pyridinium-Betaines based on non-chiral amino acids. […] The bitter-reducing effect was most pronounced with L-Phenylalanine, the dipeptide H-Gly-Leu-OH, and caffeine.

Assay [4] has as its system bitter taste of L-phenylalanine. As to the kind of experiment: Bitter-blocking effect on L-phenylalanine (detection threshold, 1/1 mixtures). The assay is classed as in vivo. On the procedure:
• Sensory panel training: […] Sensory analyses were performed in a sensory panel room at 22-25° C. on three different sessions. • Taste thresholds: The taste thresholds of the tastants or mixtures containing basic tastants plus Pyridinium-Betains were determined in a triangle test using Evian® mineral water as the solvent at a defined pH ([…] and H.-D. Belitz, Z. Lebensm. Unters. Forsch. 1975, 159, 65-72). The samples (3 mL) were presented in order of increasing concentrations (serial 1:1 dilutions). The threshold values evaluated in two different sessions were averaged. […] The taste intensities of aqueous (Evian®) solutions containing a basic tastant, such as glucose and MSG, for example, in constant concentrations and the compounds of the general formula (A), for example […], in various concentrations were compared with those of a solution containing the basic tastant only. To achieve this, triangle tests were performed with two glass vials containing the basic tastant in constant concentrations, and one glass vial containing a stepwise 1:1-diluted mixture of basic […]. […] The relative taste strength (taste enhancing factor) of a mixture containing the basic […] was related to the basic tastants glucose, MSG, or other tastants, respectively, as standard substances, and was determined as the ratio of the concentrations c of iso-intensely tasting solutions of the basic tastant, such as glucose (glc), and the mixture containing tastant plus Pyridinium-Betain, […])=[…] […] This taste enhancing effect is illustrated in examples. The tasteless Pyridinium-Betaines […] and Gabapyridaine, built from non-[…] amino acids, were tested for their bitter-blocking activity on L-phenylalanine.

Assay [5] concerns bitter taste of salicine. Description: Bitter intensity ranking with Glypyridaine: salicine. Conditions: ratio to Glypyridaine 1:1, scale 0-5. The assay is classed as in vivo.
From the text: as §1

For assay [6], the system named is salty taste of NaCl. As to the kind of experiment: Salt taste detection threshold of NaCl/Pyridinium-Betaine mixtures (triangle test, sensory panel). The assay is classed as in vivo. Conditions: mixture with NaCl, pH 7.0. On the procedure: • Sensory panel training: […] Sensory analyses were performed in a sensory panel room at 22-25° C. on three different sessions. • Taste thresholds: The taste thresholds of the tastants or mixtures containing basic tastants plus Pyridinium-Betains were determined in a triangle test using Evian® mineral water as the solvent at a defined pH ([…] and H.-D. Belitz, Z. Lebensm. Unters. Forsch. 1975, 159, 65-72). The samples (3 mL) were presented in order of increasing concentrations (serial 1:1 dilutions). The threshold values evaluated in two different sessions were averaged. […] The taste intensities of aqueous (Evian®) solutions containing a basic tastant, such as glucose and MSG, for example, in constant concentrations and the compounds of the general formula (A), for example […], in various concentrations were compared with those of a solution containing the basic tastant only. […] The relative taste strength (taste enhancing factor) of a mixture containing the basic […] was related to the basic tastants glucose, MSG, or other tastants, respectively, as standard substances, and was determined as the ratio of the concentrations c of iso-intensely tasting solutions of the basic tastant, such as glucose (glc), and the mixture containing tastant plus Pyridinium-Betain, […])=[…] […] This taste enhancing effect is illustrated in examples.

Assay [7] relates to bitter taste of coffee brew. Description: Bitterness reduction of coffee with Glypyridaine. It is filed as in vivo. Conditions: coffee brew 40 g/L plus 2.0 mmol/L Glypyridaine; coffee alone 5; scale 0 (no bitterness) to 5 (very bitter).
Assay [8] has as its system bitter taste of caffeine. Description: Bitter intensity ranking with Glypyridaine: caffeine. Conditions: scale 0-5. It is filed as in vivo.
From the text: as §1

Assay [9] has as its system bitter taste of L-phenylalanine. As to the kind of experiment: Bitter intensity ranking with Glypyridaine: L-Phenylalanine. It is filed as in vivo. To be noted: scale 0-5.
From the text: as §1

The values that follow come from patent US7175872B2, “Pyridinium-Betain compounds for use as taste modulators” (Nestec S.A., priority 2002, dated 2007).

Structures can show the parent of a compound that is named as a salt.

In the case of `O=C1C=C(c2ccco2)C(CO)[n+]2cc([O-])c(Cc3ccco3)cc21` (stereo not drawn) [3-(2-furyl)-8-[(2-furyl)methyl]-4-hydroxymethyl-1-oxo-1H,4H-quinolizinium-7-olate], the “bitter taste detection threshold” value in assay [1] is on record as 0.00025 mmol/kg water.
As for `O=C([O-])C[n+]1cc(O)ccc1CO` [Glypyridaine, N-carboxymethyl-3-hydroxy-6-hydroxymethyl-pyridinium inner salt], the Bitter taste intensity in assay [2] (H-Gly-Leu-OH 30 mmol/L water, ratio to Glypyridaine 2:1) was found to be 0.5; in assay [2] (H-Gly-Leu-OH 30 mmol/L water, ratio to Glypyridaine 10:1) it was 2; in [2] (H-Gly-Leu-OH 60 mmol/L water, ratio to Glypyridaine 2:1), 1; in [2] (H-Gly-Leu-OH 60 mmol/L water, ratio to Glypyridaine 10:1) it was 3; in [2] (H-Gly-Leu-OH 120 mmol/L water, ratio to Glypyridaine 10:1), 4; in [3] (Naringine 0.06 mmol/L water), 1. For the same molecule, the Bitter taste intensity came to 2 in assay [3] (Naringine 0.13 mmol/L water); 3 in assay [3] (Naringine 0.25 mmol/L water); 1 in assay [5] (Salicine 0.8 mmol/L water); 2 in assay [5] (Salicine 1.6 mmol/L water); 3 in [5] (Salicine 3.2 mmol/L water); 0.5 in [8] (Caffeine 4 mmol/L water, ratio to Glypyridaine 1:1). The Bitter taste intensity was 1.5 in [8] (Caffeine 4 mmol/L water, ratio to Glypyridaine 5:1); 1.5 in [8] (Caffeine 8 mmol/L water, ratio to Glypyridaine 1:1); 2 in assay [8] (Caffeine 8 mmol/L water, ratio to Glypyridaine 5:1); 2 in [8] (Caffeine 16 mmol/L water, ratio to Glypyridaine 1:1); 3 in assay [8] (Caffeine 16 mmol/L water, ratio to Glypyridaine 5:1); 0 in [9] (L-Phenylalanine 20 mmol/L water, ratio to Glypyridaine 1:1). In addition, the Bitter taste intensity in assay [9] (L-Phenylalanine 20 mmol/L water, ratio to Glypyridaine 10:1) is listed as 0.5; in assay [9] (L-Phenylalanine 40 mmol/L water, ratio to Glypyridaine 1:1), 0; in assay [9] (L-Phenylalanine 40 mmol/L water, ratio to Glypyridaine 10:1), 2; in assay [9] (L-Phenylalanine 80 mmol/L water, ratio to Glypyridaine 1:1), 0.5; in assay [9] (L-Phenylalanine 80 mmol/L water, ratio to Glypyridaine 10:1), 3. Also, in assay [4] (Pyridinium-Betaine alone), the own taste entry is “tasteless”. Also, the Taste quality entry in assay [4] (conc. 32 mmol/L, mixtures 1/1 with L-Phe, pH 7.0) is reported as “complete loss of the bitter taste”; in assay [6] it was “salty”. Moreover, the Salt detection threshold in assay [6] was 2.0 mmol/kg water. In addition, the Threshold decrease in assay [6] (vs NaCl in water 10.0 mmol/L) is on record as 5.0. Besides, the “bitter taste intensity of coffee” value in assay [7] was 2.
